How the values were obtained:
NaV1.7 [1] = target: T1, NaV1.7 (Homo sapiens, UniProt Q15858); assay: Nav1.7 intracellular inhibition (internal block), whole cell patch clamp; assay type: cell-based; conditions: % inhibition at 1 μM test concentration, compound in internal solution, 5 Hz stimulation
T1 construct: expressed in transfected cells; host or cells: unnamed tetracycline-inducible cell line, kept under hygromycin and blasticidin selection
Procedure: (§1) Representative compounds of the invention were synthesized according to the described methods and tested for the ability to inhibit voltage-gated sodium channels.
(§2) NaV1.7 was expressed upon induction with tetracycline. Cells were cultured in DMEM containing 10% dialyzed Fetal Bovine Serum (VWR, Radnor, PA), 1% Glutamax (VWR, Radnor, PA), 1% Penicillin-Streptomycin (VWR, Radnor, PA), 100 mg/L Hygromycin (Thermo Fisher Scientific, Waltham, MA and 5 mg/L Blasticidin (Alfa Aesar, Haverhill, MA). Cells were grown and maintained at 37° C. in a humidified environment containing 10% CO2 in air. Cells were detached from the culture flask for passage and harvested using 0.05% Trypsin-EDTA (Thermo Fisher Scientific, Waltham, MA). To induce NaV1.7, cells were induced with tetracycline ([…], IBI Scientific, Peosta, IA) the day before recording and plated onto 24-well plates. Cells were washed with DPBS (VWR, Radnor, PA), trypsinized and then triturated five times in 10 mL of growth media to break apart cell aggregates. For one 24-well plate, 2 mL of cell suspension was mixed with 23 mL of fresh growth media and […] tetracycline added. 1 ml of mixed media with cells was then added to each well of a 24-well plate, with a 12 mm coverslip already placed in the bottom of the well. Cells were then incubated in 37° C. and 10% CO2 overnight.
(§3) The intracellular solution contained the following (in mM) CsCl 135, NaCl 10, EGTA 10, HEPES 10, MgCl2 2, adjusted to pH 7.2 with CsOH. The external solution was a normal Ringer solution containing (in mM) NaCl 155, HEPES 10, glucose 10, KCl 3.5, CaCl2) 1.5, MgCl2 1 adjusted to pH 7.4 with NaOH. CsCl is from Alfa Aesar, Haverhill, MA. All other chemicals are from Sigma-Aldrich, St. Louis, MO. In order to test the degree of internal block by test compounds the compounds were dissolved in internal solution at the indicated test concentration. […] In order to test the degree of external block by test compounds the compounds were dissolved in external solution at the indicated test concentration.
(§4) 18-24 hours after cells were induced with tetracycline, coverslips were placed into a chamber filled with Normal Ringer solution at room temperature and the chamber placed on a microscope. Pipettes were pulled from borosilicate glass on a P97 puller (Sutter Instrument, Novato, CA) and polished with a MF-830 Microforge (Narishige International USA, Inc, Amityville, NY) to have a resistance of 1.5-2.5 MΩ when filled with CsCl internal solution at room temperature. Healthy cells (those that are round and translucent with no visible blemishes) were chosen for seal formation. A seal was formed between the pipette and the cell, and a brief pulse of suction was used to “break in” and establish the whole-cell configuration. The membrane potential was held at −100 mV before the voltage protocol began. Only cells with series resistance between 1.5-5 MΩ were retained for analysis. The voltage protocol was as follows: Cells were held at −100 mV for 12 ms followed by a hyperpolarizing step to −105 mV for 12 ms to monitor the leak. Cells were then stepped back to −100 mV for 40 ms. Cells were then depolarized to −20 mV for 10 ms and then returned to −100 mV for 26 ms.
Once the recording was started, the voltage protocol was run at 30 second intervals for 5 minutes to get a stable baseline. This was followed by four 30-second periods of 5 Hz stimulation of the same voltage protocol separated by 1 minute of rest which was then followed by 0.33 Hz stimulation after the last train. Currents were recorded using PatchMaster software with Heka EPC10 (HEKA Electronics, Lambrecht, Germany). Only cells with inward current amplitudes at −20 mV between 400 pA and 4 nA were accepted. In addition, cells having leak currents greater than 10% of their current amplitudes were discarded. […]

[2] = PAMPA membrane permeability assay; assay type: in vitro ADME; conditions: pH 7.4 buffer, GIT lipid, 4 hours incubation
Procedure: The PAMPA assay (pION, Inc., Woburn MA) was used to determine the ability of compounds of the invention to cross an artificial lipid membrane by passive diffusion. Test compounds were dissolved in DMSO (10 mM) and diluted 200-fold in buffer (pION Inc., pH 7.4) to provide 50 uM stock solutions. Buffer (150 μL) was added to a UV blank plate and stock solutions (150 μL) were transferred to a UV reference plate. The blank and reference spectrum were read using a spectrophotometer. Stock solutions (200 μL) were added to the donor plate of the PAMPA sandwich plate and an accept plate painted with GIT lipid (pION Inc, 5 μL) was placed on top. Buffer (200 μL) was added to the acceptor plate and the PAMPA sandwich plate was incubated for 4 hours. Aliquots (150 μL) from the acceptor plate were added to a UV plate and read as acceptor spectrum. Aliquots (150 μL) of the donor solutions were added to a UV analysis plate and read as donor spectrum. The permeability coefficient of test compounds was calculated using PAMPA Explorer™ software (version 3.5.0.4) based on the AUC of the reference plate, the donor plate, and the acceptor plate.

NaV1.7 [3] = target: T1, NaV1.7; assay: Nav1.7 extracellular inhibition (external block), whole cell patch clamp; assay type: cell-based; conditions: compound in external solution for 5 minutes, 5 Hz stimulation; for inhibition at 10 µM: % inhibition at 10 μM test concentration; for inhibition at 30 µM: % inhibition at 30 μM test concentration
Procedure: as §1, §2, §3, §4
Once the recording was started, the voltage protocol was run at 30 second intervals for 5 minutes to get a stable baseline. […] Currents were recorded using PatchMaster software with Heka EPC10 (HEKA Electronics, Lambrecht, Germany). […]

T1 sequence (Q15858 whole entry): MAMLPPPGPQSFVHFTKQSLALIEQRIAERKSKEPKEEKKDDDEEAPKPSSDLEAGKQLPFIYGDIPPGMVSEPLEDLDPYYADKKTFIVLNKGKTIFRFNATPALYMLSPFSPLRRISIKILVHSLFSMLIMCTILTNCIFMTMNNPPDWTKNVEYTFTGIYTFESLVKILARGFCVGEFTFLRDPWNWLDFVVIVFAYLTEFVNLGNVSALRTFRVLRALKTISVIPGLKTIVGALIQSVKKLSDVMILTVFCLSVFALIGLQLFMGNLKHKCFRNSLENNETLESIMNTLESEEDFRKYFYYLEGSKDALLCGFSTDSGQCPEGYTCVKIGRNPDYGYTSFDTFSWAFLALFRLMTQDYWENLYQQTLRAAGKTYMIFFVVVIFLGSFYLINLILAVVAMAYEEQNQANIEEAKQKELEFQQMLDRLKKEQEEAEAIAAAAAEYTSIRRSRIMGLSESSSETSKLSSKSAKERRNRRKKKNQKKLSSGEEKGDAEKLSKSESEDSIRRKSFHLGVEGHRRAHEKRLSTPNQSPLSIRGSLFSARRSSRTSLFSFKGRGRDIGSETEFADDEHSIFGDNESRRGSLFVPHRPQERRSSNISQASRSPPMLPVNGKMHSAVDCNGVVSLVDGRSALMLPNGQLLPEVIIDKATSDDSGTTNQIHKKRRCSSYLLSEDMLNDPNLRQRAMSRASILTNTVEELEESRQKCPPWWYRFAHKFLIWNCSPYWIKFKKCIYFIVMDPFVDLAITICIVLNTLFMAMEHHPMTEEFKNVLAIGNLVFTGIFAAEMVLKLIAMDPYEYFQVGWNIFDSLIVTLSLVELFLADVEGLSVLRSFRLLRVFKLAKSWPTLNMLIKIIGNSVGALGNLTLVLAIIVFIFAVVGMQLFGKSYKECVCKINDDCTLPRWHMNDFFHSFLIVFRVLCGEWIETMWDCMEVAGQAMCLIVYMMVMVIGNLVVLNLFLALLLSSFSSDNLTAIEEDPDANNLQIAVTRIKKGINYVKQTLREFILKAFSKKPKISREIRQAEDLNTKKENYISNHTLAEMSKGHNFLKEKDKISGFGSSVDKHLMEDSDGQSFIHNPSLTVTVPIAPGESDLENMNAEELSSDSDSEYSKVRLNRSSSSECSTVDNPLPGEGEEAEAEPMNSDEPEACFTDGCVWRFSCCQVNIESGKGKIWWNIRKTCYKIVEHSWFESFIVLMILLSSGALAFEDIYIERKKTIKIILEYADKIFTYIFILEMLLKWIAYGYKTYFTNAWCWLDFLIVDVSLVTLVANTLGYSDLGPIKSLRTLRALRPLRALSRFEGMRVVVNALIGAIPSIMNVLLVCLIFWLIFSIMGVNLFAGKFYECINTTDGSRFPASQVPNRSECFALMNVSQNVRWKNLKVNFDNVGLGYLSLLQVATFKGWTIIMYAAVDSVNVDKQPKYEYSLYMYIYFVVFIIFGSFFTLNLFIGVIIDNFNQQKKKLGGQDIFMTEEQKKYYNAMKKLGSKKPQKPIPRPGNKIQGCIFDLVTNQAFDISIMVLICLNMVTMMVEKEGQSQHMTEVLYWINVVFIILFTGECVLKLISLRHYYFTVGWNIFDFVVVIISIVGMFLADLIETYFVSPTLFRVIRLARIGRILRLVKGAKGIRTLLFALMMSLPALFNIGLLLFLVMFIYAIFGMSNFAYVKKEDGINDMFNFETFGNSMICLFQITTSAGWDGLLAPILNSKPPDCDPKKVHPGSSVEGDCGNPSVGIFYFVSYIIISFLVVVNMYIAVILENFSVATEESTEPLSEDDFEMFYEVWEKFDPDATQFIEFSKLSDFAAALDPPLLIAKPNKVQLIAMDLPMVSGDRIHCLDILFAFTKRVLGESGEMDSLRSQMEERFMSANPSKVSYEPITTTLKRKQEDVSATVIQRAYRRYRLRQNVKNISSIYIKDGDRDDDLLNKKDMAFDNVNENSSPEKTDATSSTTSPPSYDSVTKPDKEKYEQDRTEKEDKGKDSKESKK

inhibition at 1 µM (NaV1.7 [1]) | PAMPA (10^−6 cm/s) [2] | inhibition at 10 µM (NaV1.7 [3]) | inhibition at 30 µM (NaV1.7 [3]) | SMILES
30 to 70% | + (“+” (<0.1 10^−6 cm/s)) | – | – | COC(=O)C[N+]1(CC(=O)Nc2c(C)cccc2C)CCCCC1c1ccccc1 (stereo not drawn) [Compound 9A]
> 90% | + (“+” (<0.1 10^−6 cm/s)) | 30 to 70% | – | CC[N+]1(CC(=O)Nc2c(C)cccc2C)CCC[C@H](c2ccccc2)C1.[I-] (stereo partly drawn) [Compound 3A]
70 to 90% | + (“+” (<0.1 10^−6 cm/s)) | – | 30 to 70% | CC[N+]1(CC(=O)Nc2c(C)cccc2C)CCCCC1c1ccccc1 (stereo not drawn) [Compound 5A]
> 90% | – | – | – | CC[N+]1(CC(=O)Nc2c(C)cccc2C)CCCC(c2ccccc2)C1 (stereo not drawn) [Compound 1A, 1-(2-((2,6-dimethylphenyl)amino)-2-oxoethyl)-1-ethyl-3-phenylpiperidin-1-ium iodide]
30 to 70% | + (“+” (<0.1 10^−6 cm/s)) | – | 30 to 70% | Cc1cccc(C)c1NC(=O)C[N+]1(C)CCCCC1c1ccccc1.[I-] (stereo not drawn) [Compound 8A]
> 90% | + (“+” (<0.1 10^−6 cm/s)) | < 30% | – | CC[N+]1(CC(=O)Nc2c(C)cccc2C)CCC[C@@H](c2ccccc2)C1.[I-] (stereo partly drawn) [Compound 2A]
70 to 90% | + (“+” (<0.1 10^−6 cm/s)) | – | – | Cc1cccc(C)c1NC(=O)C[N+]1(C)CCCC(c2ccccc2)C1.[I-] (stereo not drawn) [Compound 4A]
> 90% | + (“+” (<0.1 10^−6 cm/s)) | 30 to 70% | – | CCC[N+]1(CC(=O)Nc2c(C)cccc2C)CCCC(c2ccccc2)C1 (stereo not drawn) [Compound 6A]
30 to 70% | – | – | – | CCC[N+]1(CC(=O)Nc2c(C)cccc2C)CCCCC1c1ccccc1 (stereo not drawn) [Compound 10A]

From patent publication US12195428B2, “Charged ion channel blockers and methods for use” (Nocion Therapeutics, Inc., priority 2019, dated 2025)
